Laboratory results from US4550021A (The Kitasato Institute, priority 1983, dated 1985).

Experiments:
Assay type in all cases: physicochemical
Solubility = conditions: for Solubility in organic solvents: dichloromethane, chloroform, acetone
Nature (acid/base) = test: Nature (acid/base)
Stability under heating = test: Stability under heating

## CCC(=C/[C@H](C)C/C=C/C(C)=C/[C@@H](CO)C(=O)[C@@H](C)[C@H](O)[C@@H](C)C/C(C)=C/C(=O)O)/C=C/[C@@H]1OC(=O)C=C[C@@H]1C [antibiotic 81-484]
Solubility; diethyl ether, methanol, ethyl acetate, butyl acetate, benzene
  Solubility in organic solvents: soluble
Solubility; hexane
  Solubility in hexane: insoluble
Solubility; many types: methanol, ethanol, methyl isobutyl ketone
  Solubility in organic solvents: soluble
Solubility; water
  Solubility in water: insoluble
Nature (acid/base)
  Nature: acidic substance
Stability under heating
  stability under heating: stable under heating
